A word on the mortality: it is the share of the test organisms that died.

SMILES strings stand for the structures.

Assay type in all cases: in vivo
In one series the test system is Aphis gossypii. In words: Cotton Aphid (Aphis gossypii) assay, spray on squash seedlings. The note with it: Aphis gossypii; rate 50 ppm; 72 h; relative to plants sprayed with solvent only. How it is done:
Insecticidal activities of the compounds of the invention were also evaluated against cotton aphids (Aphis gossyppi) as follows. Summer crookneck squash seedlings at the expanded cotyledon stage are primed to a single cotyledon and infested with cotton aphids 16-24 hours before application of the test material by transfer of infested foliage cut from a stock colony. Immediately prior to spray application of the test material, the transfer foliage is removed from the squash plants. The test material is dissolved at 1 mg/ml in 90:10 acetone:alcohol, then diluted in water containing 0.05% Tween 20 (polyethylene (20) sorbitan monolaurate) to give test solution at a concentration of 50 ppm. The plants were sprayed with the test solution using an atomizing sprayer at 17 psi. Both surfaces of the cotyledons are covered until runnoff, and then allowed to dry. Activity of the compound was determined at three days after treatment. Activity was rated as a percent based on the number of aphids present in plants sprayed with solvent only.

Series [1] relates to Heliothis virescens. As to the kind of experiment: Tobacco Budworm (Heliothis virescens) topical assay. The note with it: in vivo. Here is the method:
An additional measure of the relative insecticidal activities of the compounds of the invention was generated by using a 1 ug/ul acetone solution of each compound applied at 1 ug/larva of laboratory-reared Heliothis virescens larvae (mean weight of 22 mg). Each compound was applied along the dorsum of each of six larvae. Treated larvae were then held for two days at 21° C., 60% RH in six-well plastic culture plates. Larvae were each supplied with a 1 cm^3 of agar-based lepidoptera diet for sustenance during the two-day post-exposure interval. Percent mortality was determined at the end of a two-day period.

The subject of series [2] is Heliothis virescens. In words: Tobacco Budworm (Heliothis virescens) feeding assay, cotton leaf-dip. The note with it: Heliothis virescens; rate 6.25 ppm; second instar larvae; 96 h. The source says: To compare insecticidal activities of compounds of the invention against second instar larval Heliothis virescens leaf-dip bioassay was used. Cotton cotyledon leaves were dipped in a test solution made up of the compound dissolved in acetone: Millipore water (2:1) at rates of 400 ppm to 1.56 ppm. Each cotyledon was placed individually on top of a moistened (distilled water) cotton ball in the bottom of a 1 oz plastic cup and allowed to dry (one hour). After drying, a single laboratory-reared second instar Heliothis virescens larva (mean weight 15 mg.) was placed on the treated leaf and the cup sealed with a lid, and held at 27° C. for four days. Percent mortality was determined at the end of the holding period.

Series [3] concerns Heliothis virescens. Described as above. The note with it: rate 600 ppm, second instar larvae, 96 h.

In the series on Aphis gossypii, `CCCC[C@H]1CCC[C@H](OC2CC[C@H](N(C)C)[C@@H](C)O2)[C@@H](C)C(=O)C2=CC3C4C[C@H](O[C@@H]5O[C@@H](C)[C@H](OC)[C@@H](OC)[C@H]5OC)CC4CCC3C2CC(=O)O1` (stereo partly shown) [Compound B3, 5,6,22,23-tetrahydro-for-rham-I] gave a mortality at 50 ppm of 53%. Moreover, the “Tobacco Budworm Typical (48 h) Mortality (%)” value in the series with Heliothis virescens [1] stood at 100%. Also, the mortality at 6.25 ppm in the series on Heliothis virescens [2] was determined as 100%.

`CCCC[C@H]1CCC[C@H](OC2CC[C@H](N(C)C)[C@@H](C)O2)[C@@H](C)C(=O)C2=CC3C4C[C@H](O[C@@H]5O[C@@H](C)[C@H](OC)[C@@H](O)[C@H]5OC)CC4CCC3C2CC(=O)O1` (stereo partly shown) [Compound B12, 5,6,22,23-tetrahydro-for-(3′-O-desmethylrham)-I] came in with a mortality at 600 ppm in the series on Heliothis virescens [3] of 100%.

The values are drawn from patent US6919464B1, “Synthetic derivatives of 21-butenyl and related spinosyns” (Dow AgroSciences LLC, priority 2001, dated 2005).
